Columns and labels:
[1] = Cytotoxicity against human PC3 cells assessed as inhibition of cell proliferation by sulforhodamine B assay; type: functional, cell-based; details: PC-3
U-251 = assay: Cytotoxicity against human U251 cells assessed as inhibition of cell proliferation by sulforhodamine B assay; type: functional, cell-based

With CC(C)[C@]12O[C@H]1[C@@H]1O[C@]13[C@@]1(O[C@@H]1C[C@H]1C4=C(CC[C@@]13C)C(=O)OC4)[C@@H]2O the IC50 [1] was > 10000 nM and the IC50 (U-251) was > 10000 nM.
Compound CC(C)[C@]12O[C@H]1[C@@H]1O[C@]13[C@]1(O[C@H]1C[C@H]1C4=C(CC[C@@]13C)C(=O)OC4)[C@@H]2O [TRIPTOLIDE] has an IC50 [1] of 20 nM and an IC50 (U-251) of 33 nM.
CC(C)[C@]12O[C@H]1[C@@H]1O[C@@]13[C@@]1(C)CCC4=C(COC4=O)[C@@]1(O)[C@@H](O)[C@@H]1O[C@@]13C2=O showed an IC50 [1] of 5040 nM and an IC50 (U-251) of 9860 nM.
With CC(C)[C@]12O[C@H]1[C@@H]1O[C@@]13[C@@]1(C)CCC4=C(COC4=O)C1=C[C@@H]1O[C@@]13C2=O the IC50 [1] was 171 nM and the IC50 (U-251) was 1630 nM.
Compound CC(C)[C@]12O[C@H]1[C@@H]1O[C@@]13[C@@]1(C)CCC4=C(COC4=O)[C@]1(O)C[C@@H]1O[C@@]13C2=O has an IC50 [1] of 377 nM and an IC50 (U-251) of 1030 nM.
With CC(C)[C@]12O[C@H]1[C@@H]1O[C@]13[C@]1(O[C@H]1C=C1C4=C(CC[C@@]13C)C(=O)OC4)[C@@H]2O the IC50 [1] was 126 nM and the IC50 (U-251) was 718 nM.
With CC(C)[C@]12O[C@H]1[C@@H]1O[C@@]13[C@@]1(C)CCC4=C(COC4=O)[C@]1(Cl)C[C@@H]1O[C@@]13C2=O the IC50 [1] was 85 nM and the IC50 (U-251) was 170 nM.
Compound CC(C)[C@]12O[C@H]1[C@@H]1O[C@@]13[C@@]1(C)CCC4=C(COC4=O)[C@]1(F)C[C@@H]1O[C@@]13C2=O has an IC50 [1] of 223 nM and an IC50 (U-251) of 429 nM.
With CC(C)[C@]12O[C@H]1[C@@H]1O[C@]13[C@]1(O[C@H]1[C@H](O)[C@@]1(O)C4=C(CC[C@]31C)C(=O)OC4)[C@H]2O the IC50 [1] was > 10000 nM and the IC50 (U-251) was > 10000 nM.
With CC(C)[C@]12O[C@H]1[C@@H]1O[C@]13[C@]1(O[C@H]1C=C1C4=C(CC[C@@]13C)C(=O)OC4)[C@H]2O the IC50 [1] was 3220 nM and the IC50 (U-251) was 5040 nM.
Work on CC(C)[C@]12O[C@H]1[C@@H]1O[C@@]13[C@@]1(C)CCC4=C(COC4=O)[C@]1(Cl)C[C@@H]1O[C@@]13[C@]21CO1 yielded an IC50 [1] of 871 nM and an IC50 (U-251) of 925 nM.
CC(C)[C@]12O[C@H]1[C@@H]1O[C@]13[C@]1(O[C@H]1C[C@@]1(Br)C4=C(CC[C@]31C)C(=O)OC4)[C@@H]2O gave an IC50 [1] of 333 nM and an IC50 (U-251) of 796 nM.
In the case of CC(C)[C@]12O[C@H]1[C@@H]1O[C@]13C(=CC[C@H]1C4=C(CC[C@@]13C)C(=O)OC4)[C@@H]2O, the IC50 [1] is reported as > 10000 nM and the IC50 (U-251) is reported as > 10000 nM.
In the case of CC(C)[C@]12O[C@H]1[C@@H]1O[C@]13[C@]1(O[C@H]1[C@H](O)[C@@]1(O)C4=C(CC[C@]31C)C(=O)OC4)[C@@H]2O, the IC50 [1] is reported as 589 nM and the IC50 (U-251) is reported as 1580 nM.
CC(C)[C@]12O[C@H]1[C@@H]1O[C@]13[C@]1(O[C@H]1C[C@@]1(O)C4=C(CC[C@]31C)C(=O)OC4)[C@@H]2O gave an IC50 [1] of 275 nM and an IC50 (U-251) of 488 nM.
For CC(C)[C@]12O[C@H]1[C@@H]1O[C@@]13[C@@]1(C)CCC4=C(COC4=O)[C@]1(Br)C[C@@H]1O[C@@]13[C@]21CO1, the IC50 [1] was 893 nM and the IC50 (U-251) was 2040 nM.
CC(C)[C@]12O[C@H]1[C@@H]1O[C@@]13[C@@]1(C)CCC4=C(COC4=O)[C@]1(O)C[C@@H]1O[C@@]13[C@]21CO1 gave an IC50 [1] of 2610 nM and an IC50 (U-251) of 5470 nM.
In the case of CC(C)[C@]12O[C@H]1[C@@H]1O[C@@]13[C@@]1(C)CCC4=C(COC4=O)[C@]1(O)[C@@H](O)[C@@H]1O[C@@]13C2=O, the IC50 [1] is reported as 2270 nM and the IC50 (U-251) is reported as 2970 nM.
CC(C)[C@]12O[C@H]1[C@@H]1O[C@@]13[C@@]1(C)CCC4=C(COC4=O)[C@@]14O[C@H]4[C@@H]1O[C@@]13C2=O showed an IC50 [1] of 4050 nM and an IC50 (U-251) of 197 nM.
Work on CC(C)[C@]12O[C@H]1[C@@H]1O[C@@]13[C@@]1(C)CCC4=C(COC4=O)[C@@H]1C[C@@H]1O[C@@]13C2=O [TRIPTONIDE] yielded an IC50 [1] of 26 nM and an IC50 (U-251) of 31 nM.
CC(C)[C@]12O[C@H]1[C@@H]1O[C@@]13[C@@]1(C)CCC4=C(COC4=O)[C@]1(Br)C[C@@H]1O[C@@]13C2=O showed an IC50 [1] of 104 nM and an IC50 (U-251) of 558 nM.

Reference: ChEMBL document CHEMBL3352039, “Semisynthesis of triptolide analogues: effect of B-ring substituents on cytotoxic activities” (Bioorg Med Chem Lett, 2014)
